# The Kinase Knowledgebase extract (Sharma et al. 2016)
# Target: PIK3CD (Human) (UniProt O00329)
# Test: Assessment of PI3KCD Kinase Activity
# Sequence of PIK3CD (Human) (O00329 whole entry, looked up): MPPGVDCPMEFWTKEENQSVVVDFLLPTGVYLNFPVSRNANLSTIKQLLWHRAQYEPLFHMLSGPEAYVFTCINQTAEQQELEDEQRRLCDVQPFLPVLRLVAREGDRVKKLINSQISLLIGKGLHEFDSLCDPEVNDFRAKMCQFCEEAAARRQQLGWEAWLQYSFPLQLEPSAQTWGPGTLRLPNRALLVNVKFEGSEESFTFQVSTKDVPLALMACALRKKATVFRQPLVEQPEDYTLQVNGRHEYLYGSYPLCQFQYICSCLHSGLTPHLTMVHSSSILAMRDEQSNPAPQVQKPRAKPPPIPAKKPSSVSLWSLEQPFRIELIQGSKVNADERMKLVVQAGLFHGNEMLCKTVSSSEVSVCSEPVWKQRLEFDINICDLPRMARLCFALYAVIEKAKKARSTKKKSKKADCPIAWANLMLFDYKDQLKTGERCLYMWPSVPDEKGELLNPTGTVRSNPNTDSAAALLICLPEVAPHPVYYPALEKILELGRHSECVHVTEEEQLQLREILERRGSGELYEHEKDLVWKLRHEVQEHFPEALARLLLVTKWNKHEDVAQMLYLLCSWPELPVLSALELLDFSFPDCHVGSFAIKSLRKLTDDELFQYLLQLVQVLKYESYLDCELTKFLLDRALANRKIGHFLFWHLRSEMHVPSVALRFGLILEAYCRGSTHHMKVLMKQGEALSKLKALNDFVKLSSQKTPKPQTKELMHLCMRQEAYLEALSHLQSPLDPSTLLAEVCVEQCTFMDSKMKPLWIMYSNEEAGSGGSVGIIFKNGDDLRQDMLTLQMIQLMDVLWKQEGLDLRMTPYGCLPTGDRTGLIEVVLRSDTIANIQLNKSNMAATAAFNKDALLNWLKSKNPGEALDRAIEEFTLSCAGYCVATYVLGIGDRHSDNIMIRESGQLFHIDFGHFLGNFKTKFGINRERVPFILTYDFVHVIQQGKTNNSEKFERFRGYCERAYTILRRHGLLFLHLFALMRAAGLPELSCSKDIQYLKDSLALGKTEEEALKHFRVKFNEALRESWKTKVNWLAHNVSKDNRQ
row,Compound,IC50
1,CC(C)n1c(Cn2nc(-c3cc(O)cc(F)c3)c3c(N)ncnc32)cc2ccccc2c1=O,< 100 nM
2,Cc1cccc2cc(Cn3nc(-c4cccc(O)c4)c4c(N)ncnc43)n(-c3ccccc3OCCN3CCOCC3)c(=O)c12,< 100 nM
3,Cc1cccc2cc(Cn3nc(C#N)c4c(N)ncnc43)n(-c3ccccc3F)c(=O)c12,< 100 nM
4,Cc1cccnc1-n1c(Cn2nc(-c3cc(O)cc(F)c3)c3c(N)ncnc32)cc2ccccc2c1=O,< 100 nM
5,Cc1ccnc2cc(Cn3nc(-c4cc(O)cc(F)c4)c4c(N)ncnc43)n(-c3ccccc3F)c(=O)c12,< 100 nM
6,CCc1ccccc1-n1c(Cn2nc(C#C[C@@H](C)O)c3c(N)ncnc32)cc2cccc(C)c2c1=O,< 100 nM
7,Nc1ncnc2c1c(-c1cc(O)cc(F)c1)nn2Cc1cc2cccc(F)c2c(=O)n1-c1ccccc1F,< 100 nM
8,Cc1cccc2cc(Cn3nc(-c4cn[nH]c4)c4c(N)ncnc43)n(-c3ccccc3Cl)c(=O)c12,< 100 nM
9,Cc1ccnc2nc(Cn3nc(I)c4c(N)ncnc43)n(-c3ccccc3F)c(=O)c12,< 100 nM
10,Cc1cccc2cc(Cn3nc(C#C[C@@H](C)O)c4c(N)ncnc43)n(-c3ccccc3O)c(=O)c12,< 100 nM
11,Cc1cccc2cc(Cn3nc(-c4cc(O)cc(F)c4)c4c(N)ncnc43)n(C3CCCCC3)c(=O)c12,< 100 nM
12,Cc1cccc2cc(Cn3nc(-c4cc(O)cc(F)c4)c4c(N)ncnc43)n(-c3ccccc3OCCN3CCOCC3)c(=O)c12,< 100 nM
13,CC(C)n1c(Cn2nc(-c3cc(O)cc(F)c3)c3c(N)ncnc32)cc2cccc(F)c2c1=O,< 100 nM
14,Cc1cccc2cc(Cn3nc(-c4cnn(CCO)c4)c4c(N)ncnc43)n(-c3ccccc3F)c(=O)c12,< 100 nM
15,Nc1ncnc2c1c(-c1cccc(O)c1)nn2Cc1cc2cccc(Cl)c2c(=O)n1C1CC1,< 100 nM
16,Cc1ccccc1-n1c(Cn2nc(-c3cc(O)cc(F)c3)c3c(N)ncnc32)nc2snc(C)c2c1=O,< 100 nM
17,Cc1ccccc1-n1c(Cn2nc(C#C[C@@H](C)O)c3c(N)ncnc32)cc2cccc(C)c2c1=O,< 100 nM
18,Cc1cccc2cc(Cn3nc(-c4cccc(O)c4)c4c(N)ncnc43)n(C)c(=O)c12,< 100 nM
19,Cc1ccccc1-n1c(Cn2nc(Cl)c3c(N)ncnc32)nc2nccc(C)c2c1=O,< 100 nM
20,Cc1ccccc1-n1c(Cn2nc(C#N)c3c(N)ncnc32)cc2cccc(C)c2c1=O,< 100 nM
21,Cc1cccc2cc(Cn3nc(C#CCO)c4c(N)ncnc43)n(-c3ccccc3F)c(=O)c12,< 100 nM
22,Cc1ccccc1-n1c(Cn2nc(-c3cc(O)cc(F)c3)c3c(N)ncnc32)cc2cccc(F)c2c1=O,< 100 nM
23,CC(C)n1c(Cn2nc(-c3cccc(O)c3)c3c(N)ncnc32)cc2ccccc2c1=O,< 100 nM

row,Compound,IC50
1,CC(C)n1c(Cn2nc(-c3cccc(O)c3)c3c(N)ncnc32)cc2cccc(Cl)c2c1=O,< 100 nM
2,Cc1cccc2cc(Cn3nc(I)c4c(N)ncnc43)n(-c3ccccc3F)c(=O)c12,< 100 nM
3,CCn1c(Cn2nc(-c3cccc(O)c3)c3c(N)ncnc32)cc2cccc(C)c2c1=O,< 100 nM
4,Cc1ccccc1-n1c(Cn2nc(C#C[C@H](C)O)c3c(N)ncnc32)nc2scc(C)c2c1=O,< 100 nM
5,COc1ccccc1-n1c(Cn2nc(-c3cccc(O)c3)c3c(N)ncnc32)nc2scc(C)c2c1=O,< 100 nM
6,Cc1cccnc1-n1c(Cn2nc(-c3cccc(O)c3)c3c(N)ncnc32)nc2scc(C)c2c1=O,< 100 nM
7,Cc1ccccc1-n1c(Cn2nc(-c3cccc(O)c3)c3c(N)nccc32)cc2cccc(C)c2c1=O,< 100 nM
8,Nc1ncnc2c1c(I)nn2Cc1cc2cccc(Cl)c2c(=O)n1C1CC1,< 100 nM
9,COc1ccccc1-n1c(Cn2nc(Cl)c3c(N)ncnc32)nc2scc(C)c2c1=O,< 100 nM
10,Cc1cccc2cc(Cn3nc(-c4cccc(O)c4)c4c(N)ncnc43)n(-c3ccccc3F)c(=O)c12,< 100 nM
11,Cc1cccc2cc(Cn3nc(I)c4c(N)ncnc43)n(-c3ccccc3OCCN3CCOCC3)c(=O)c12,< 100 nM
12,Cc1ccccc1-n1c(Cn2nc(Br)c3c(N)ncnc32)nc2nccc(C)c2c1=O,< 100 nM
13,Cc1ccccc1-n1c(Cn2nc(Br)c3c(N)ncnc32)nc2sc(C)c(C)c2c1=O,< 100 nM
14,Cc1ccccc1-n1c(Cn2nc(I)c3c(N)ncnc32)nc2scc(C)c2c1=O,< 100 nM
15,Cc1csc2nc(Cn3nc(Br)c4c(N)ncnc43)n(-c3ccccc3Cl)c(=O)c12,< 100 nM
16,COc1ccccc1-n1c(Cn2nc(Br)c3c(N)ncnc32)nc2scc(C)c2c1=O,< 100 nM
17,Cc1csc2nc(Cn3nc(Cl)c4c(N)ncnc43)n(-c3ccccc3C(F)(F)F)c(=O)c12,< 100 nM
18,Cc1ccccc1-n1c(Cn2nc(I)c3c(N)nccc32)cc2cccc(C)c2c1=O,< 100 nM
19,Cc1ccccc1-n1c(Cn2nc(-c3cccc(O)c3)c3c(N)ncnc32)nc2scc(C(F)(F)F)c2c1=O,< 100 nM
20,Cc1cccc2cc(Cn3nc(I)c4c(N)ncnc43)n(C3CCC3)c(=O)c12,< 100 nM
21,Cc1csc2nc(Cn3nc(C#C[C@@H](C)O)c4c(N)ncnc43)n(-c3ccccc3C(C)C)c(=O)c12,< 100 nM
22,Cc1cccc2cc(Cn3nc(-c4cc(O)cc(F)c4)c4c(N)ncnc43)n(C)c(=O)c12,< 100 nM
23,Cc1ccccc1-n1c(Cn2nc(Br)c3c(N)ncnc32)nc2scc(C(F)(F)F)c2c1=O,< 100 nM

row,Compound,IC50
1,COc1ccccc1-n1c(Cn2nc(I)c3c(N)ncnc32)cc2cccc(C)c2c1=O,< 100 nM
2,Cc1cccnc1-n1c(Cn2nc(-c3cccc(O)c3)c3c(N)ncnc32)cc2cccc(C)c2c1=O,< 100 nM
3,Cc1ccccc1-n1c(Cn2nc(-c3cc(O)cc(F)c3)c3c(N)ncnc32)nc2cnn(C)c2c1=O,< 100 nM
4,CC(C)n1c(Cn2nc(-c3cc(O)cc(F)c3)c3c(N)ncnc32)cc2cccc(Cl)c2c1=O,< 100 nM
5,Cc1ccccc1-n1c(Cn2nc(-c3cc(O)cc(F)c3)c3c(N)ncnc32)nc2c(C)nn(C)c2c1=O,< 100 nM
6,Cc1ccccc1-n1c(Cn2nc(Cl)c3c(N)ncnc32)nc2scc(C)c2c1=O,< 100 nM
7,Cc1csc2nc(Cn3nc(I)c4c(N)ncnc43)n(-c3ccccc3Cl)c(=O)c12,< 100 nM
8,Cc1csc2nc(Cn3nc(Br)c4c(N)ncnc43)n(-c3ccccc3F)c(=O)c12,< 100 nM
9,Cc1ccncc1-n1c(Cn2nc(I)c3c(N)ncnc32)cc2cccc(C)c2c1=O,< 100 nM
10,Cc1csc2nc(Cn3nc(-c4cc(O)cc(F)c4)c4c(N)ncnc43)n(-c3ccccc3Cl)c(=O)c12,< 100 nM
11,Cc1ccccc1-n1c(Cn2nc(-c3cc(O)cc(F)c3)c3c(N)ncnc32)nc2sc(C)c(C)c2c1=O,< 100 nM
12,Cc1cccc2cc(Cn3nc(I)c4c(N)ncnc43)n(C(C)C)c(=O)c12,< 100 nM
13,Cc1cccc2cc(Cn3nc(-c4cccc(O)c4)c4c(N)ncnc43)n(C3CCC3)c(=O)c12,< 100 nM
14,COc1ccccc1-n1c(Cn2nc(C#C[C@@H](C)O)c3c(N)ncnc32)nc2scc(C)c2c1=O,< 100 nM
15,Cc1csc2nc(Cn3nc(-c4ccc(F)c(O)c4)c4c(N)ncnc43)n(-c3ccccc3F)c(=O)c12,< 100 nM
16,Cc1cccc2cc(Cn3nc(-c4cccc(O)c4)c4c(N)ncnc43)n(C3CCCCC3)c(=O)c12,< 100 nM
17,Cc1cccc2cc(Cn3nc(-c4cc(O)cc(F)c4)c4c(N)ncnc43)n(C(C)C)c(=O)c12,< 100 nM
18,Cc1cccc2cc(Cn3nc(C#C[C@@H](C)O)c4c(N)ncnc43)n(C3CCCCC3)c(=O)c12,< 100 nM
19,Cc1csc2nc(Cn3nc(-c4ccc(Cl)c(O)c4)c4c(N)ncnc43)n(-c3ccccc3F)c(=O)c12,< 100 nM
20,C=Cc1nn(Cc2cc3cccc(C)c3c(=O)n2-c2ccccc2C)c2ncnc(N)c12,< 100 nM
21,Cc1cccc2cc(Cn3nc(I)c4c(N)ncnc43)n(-c3ccccc3Cl)c(=O)c12,< 100 nM
22,Cc1cccc2cc(Cn3nc(C#C[C@@H](C)O)c4c(N)ncnc43)n(C(C)C)c(=O)c12,< 100 nM
23,Cc1ccccc1-n1c(Cn2nc(-c3cc(O)cc(F)c3)c3c(N)ncnc32)nc2scc(C(F)(F)F)c2c1=O,< 100 nM

row,Compound,IC50
1,Cc1cccc2cc(Cn3nc(-c4cn[nH]c4)c4c(N)ncnc43)n(-c3ccccc3F)c(=O)c12,< 100 nM
2,Cc1cccc2cc(Cn3nc(-c4cc(O)cc(F)c4)c4c(N)ncnc43)n(C3CCC3)c(=O)c12,< 100 nM
3,COc1ccccc1-n1c(Cn2nc(C#C[C@@H](C)O)c3c(N)ncnc32)cc2cccc(C)c2c1=O,< 100 nM
4,Cc1csc2nc(Cn3nc(-c4cccc(O)c4)c4c(N)ncnc43)n(-c3ccccc3F)c(=O)c12,< 100 nM
5,Cc1ccccc1-n1c(Cn2nc(-c3cccc(O)c3)c3c(N)ncnc32)cc2ccccc2c1=O,< 100 nM
6,Cc1cccc2cc(Cn3nc(-c4ccc(Cl)c(O)c4)c4c(N)ncnc43)n(C(C)C)c(=O)c12,< 100 nM
7,CCc1ccccc1-n1c(Cn2nc(C#C[C@@H](C)O)c3c(N)ncnc32)nc2scc(C)c2c1=O,< 100 nM
8,Cc1ccccc1-n1c(Cn2nc(C#CCO)c3c(N)ncnc32)nc2scc(C)c2c1=O,< 100 nM
9,Cc1cccc2cc(Cn3nc(C#C[C@@H](C)O)c4c(N)ncnc43)n(-c3ccccc3F)c(=O)c12,< 100 nM
10,Cc1cccc2cc(Cn3nc(C#C[C@@H](C)O)c4c(N)ncnc43)n(C3CCCC3)c(=O)c12,< 100 nM
11,Cc1ccccc1-n1c(Cn2nc(-c3ccc(O)c(F)c3)c3c(N)ncnc32)cc2nccc(C)c2c1=O,< 100 nM
12,Cc1ccccc1-n1c(Cn2nc(C#C[C@@H](C)O)c3c(N)ncnc32)nc2scc(C)c2c1=O,< 100 nM
13,Cc1csc2nc(Cn3nc(I)c4c(N)ncnc43)n(-c3ccccc3F)c(=O)c12,< 100 nM
14,Cc1ccccc1-n1c(Cn2nc(Br)c3c(N)ncnc32)nc2scc(C)c2c1=O,< 100 nM
15,Cc1csc2nc(Cn3nc(C#CCO)c4c(N)ncnc43)n(-c3ccccc3F)c(=O)c12,< 100 nM
16,Cc1ccccc1-n1c(Cn2nc(C#C[C@@H](C)O)c3c(N)ncnc32)cc2nccc(C)c2c1=O,< 100 nM
17,Cc1cccc2cc(Cn3nc(-c4cc(O)cc(F)c4)c4c(N)ncnc43)n(C3CCOCC3)c(=O)c12,< 100 nM
18,Cc1cccc2cc(Cn3nc(-c4cn[nH]c4)c4c(N)ncnc43)n(-c3cccc(F)c3)c(=O)c12,< 100 nM
19,Cc1ccccc1-n1c(Cn2nc(C#CCO)c3c(N)ncnc32)cc2cccc(C)c2c1=O,< 100 nM
20,Cc1cccc2cc(Cn3nc(-c4cccc(O)c4)c4c(N)ncnc43)n(C3CCCC3)c(=O)c12,< 100 nM
21,Cc1csc2nc(Cn3nc(C#C[C@@H](C)O)c4c(N)ncnc43)n(-c3ccccc3C(F)(F)F)c(=O)c12,< 100 nM
